Values after ≈ are worked out from the molar mass of the structure shown.

This test has as its system M. tuberculosis H37Rv growth inhibition. As to the kind of experiment: Mycobacterium tuberculosis H37Rv growth inhibition, putative kinase inhibitor library, confirmatory dose response (AID 2842).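 Further: bacteria incubated one week before Alamar blue readout.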

The IC90 is the concentration at which the effect reaches the 90% level. As for `COc1ccc(CNC(=O)c2c(C)oc3c2C(=O)c2ccccc2C3=O)cc1`, the 90% effect concentration (IC90) was 1.1 µg/mL (≈ 2.93 µM).

For `COc1ccccc1C(=O)Nc1nnc(-c2cc(C)ccc2C)o1`, the IC90 is 1.92 µg/mL (≈ 5.94 µM).

Regarding `COc1ccc(Nc2nc(Nc3cccc(OC)c3)nc3nccnc23)cc1`, the IC90 is 9.86 µg/mL (≈ 26.3 µM).

With `COc1cccc2sc(Nc3nc4ccccc4s3)nc12`, the IC90 is 3.41 µg/mL (≈ 10.9 µM).

Turning to `COc1cccc(-c2nnc(NC(=O)/C=C/c3cccs3)o2)c1`, the IC90 is 3.55 µg/mL (≈ 10.8 µM).

On to `CCS(=O)(=O)c1cccc(C(=O)Nc2nnc(-c3cc(C)ccc3C)o2)c1`, for which the concentration for an effect of 90% (IC90) was 9.12 µg/mL (≈ 23.7 µM).

For `O=C(CC(SCc1ccco1)c1cccc([N+](=O)[O-])c1)c1ccco1` (stereo not given), the concentration for an effect of 90% (IC90) is under 0.2 µg/mL.

On to `O=C(Nc1nnc(-c2cccs2)o1)C1CCCCC1`, for which the IC90 was 26.9 µg/mL (≈ 97.1 µM).

As to `O=C(Nc1nnc(-c2cc(Cl)ccc2Cl)o1)c1ccc(S(=O)(=O)N2CCCC2)cc1`, the IC90 is 25.6 µg/mL (≈ 54.8 µM).

As for `CCOc1ccc2nc(Nc3nc4ccc(NC(C)=O)cc4s3)sc2c1`, the IC90 was 7.84 µg/mL (≈ 20.4 µM).

With `COc1cccc2sc(Nc3nc4c(s3)CC(C)CC4)nc12` (stereo not given), the IC90 is 5.79 µg/mL (≈ 17.5 µM).

With `Cc1ccc(-c2nnc(NC(=O)c3cc4ccccc4oc3=O)o2)c(C)c1`, the IC90 was 1.36 µg/mL (≈ 3.76 µM).

In the case of `CC1=C(C(=O)Nc2cccc(Cl)c2)C(c2ccc(Br)cc2)NC(=O)N1` (stereo not given), the IC90 was 20.3 µg/mL (≈ 48.1 µM).

With `O=C(CSc1nc(-c2cccc(F)c2)[nH]c1-c1ccccc1)Nc1ccc2c(c1)OCO2`, the IC90 was 5.1 µg/mL (≈ 11.4 µM).

With `Cc1cccc2sc(NNC(=O)c3nc4ccccc4s3)nc12`, the 90% effect concentration (IC90) was 3.36 µg/mL (≈ 9.87 µM).

As to `CCN1C(=O)c2cccc3c(NC(=O)c4ccc(S(=O)(=O)N(C)C)cc4)ccc1c23`, the IC90 is 24.2 µg/mL (≈ 57.2 µM).

`O=C(COc1ccc(Cl)cc1)N1CCN(c2ncnc3c2nnn3Cc2ccccc2)CC1`: the IC90 is 6.75 µg/mL (≈ 14.5 µM).

For `O=C(Cc1cccc2ccccc12)Nc1nnc(-c2ccc(F)cc2)o1`, the IC90 was 22.4 µg/mL (≈ 64.4 µM).

With `CCOC(=O)c1ccc(-n2cc(O)c(C(=O)OCC)n2)cc1`, the concentration for an effect of 90% (IC90) was 20 µg/mL (≈ 65.7 µM).

On to `Cc1ccc2c(c1)c1nnc(-c3ccc4c(c3)OCO4)c-1cn2Cc1cccc(F)c1`, for which the IC90 is 3.39 µg/mL (≈ 8.24 µM).

On to `O=C(Nc1nnc(-c2cc(Cl)ccc2Cl)o1)c1ccc(Cl)s1`, for which the IC90 is 1.86 µg/mL (≈ 4.96 µM).

For the molecule `COc1ccc(-c2nnc3c4cc(OC)c(OC)cc4n(Cc4ccccc4)cc2-3)cc1`, the concentration for an effect of 90% (IC90) is 11 µg/mL (≈ 25.8 µM).

In the case of `O=C(Nc1nnc(-c2ccc(Br)cc2)o1)c1ccc2c(c1)CCCC2`, the IC90 was 16.8 µg/mL (≈ 42.1 µM).

Consider `Cc1cc2cc(CNC(=O)C(=O)c3c[nH]c4ccccc34)ccc2[nH]1`, for which the 90% effect concentration (IC90) is 8.44 µg/mL (≈ 25.5 µM).

As to `O=C(OCn1nnc2ccccc2c1=O)C(c1ccccc1)c1ccccc1`, the IC90 was 8.87 µg/mL (≈ 23.9 µM).

Consider `CCCCc1ccc2nc(Nc3nc4ccc(S(C)(=O)=O)cc4s3)sc2c1`, for which the IC90 is 31.8 µg/mL (≈ 76.1 µM).

With `Cc1ccc2sc(NNC(=O)c3coc4ccccc4c3=O)nc2c1C`, the IC90 is 34.9 µg/mL (≈ 95.5 µM).

Turning to `O=C(c1ccc(Nc2nc(-c3ccccc3)c3cc(Br)ccc3n2)cc1)N1CCCC1`, the IC90 is 21.1 µg/mL (≈ 44.6 µM).

`O=C(Nc1nnc(-c2ccc3c(c2)CCCC3)o1)c1ccc(F)cc1`: the IC90 is 21.6 µg/mL (≈ 64 µM).

Regarding `CCCC(=O)Nc1nnc(-c2cc(C)ccc2C)o1`, the IC90 is 2.09 µg/mL (≈ 8.06 µM).

For the molecule `COc1ccc(-c2nc(NC(=O)c3cccc(C)c3)sc2C)cc1`, the IC90 is 5.78 µg/mL (≈ 17.1 µM).

Consider `Cc1[nH]c2ccccc2c1SCCNC(=O)c1cc2ccccc2oc1=O`, for which the IC90 was under 0.2 µg/mL.

Take `COc1ccc(Cl)cc1NC(=O)NC1CC(=O)N(c2ccc(C)c(C)c2)C1` (stereo not given): the concentration for an effect of 90% (IC90) is 28.5 µg/mL (≈ 73.5 µM).

For `Cc1cc(C)c2nc(NNC(=O)c3nc4ccccc4s3)sc2c1`, the IC90 is 4.23 µg/mL (≈ 11.9 µM).

`O=C(Nc1nnc(-c2cc(Cl)ccc2Cl)o1)c1ccccc1F`: the IC90 was 0.43 µg/mL (≈ 1.22 µM).

For the molecule `COc1ccc(C)c2sc(N(CCCn3ccnc3)C(=O)c3ccc(Cl)s3)nc12`, the IC90 was 2.69 µg/mL (≈ 6.02 µM).

As for `N#Cc1ccc(C(=O)Nc2nnc(-c3cccnc3)o2)cc1`, the 90% effect concentration (IC90) is 53.3 µg/mL (≈ 183 µM).

Regarding `O=C(O)c1ccccc1NC1=C(Cl)C(=O)N(c2cccc(Cl)c2)C1=O`, the IC90 is 21.3 µg/mL (≈ 56.5 µM).

Consider `COc1ccc(OC)c2sc(N(CCCn3ccnc3)C(=O)c3ccc(F)cc3)nc12`, for which the IC90 is 13.5 µg/mL (≈ 30.6 µM).

In the case of `Fc1cccc2sc(Nc3nnc(-c4ccco4)o3)nc12`, the IC90 is 2.08 µg/mL (≈ 6.88 µM).

Regarding `O=c1c2[nH]c3ccccc3c2nc(SCCN2CCCCC2)n1-c1ccccc1F`, the IC90 was 14.6 µg/mL (≈ 34.6 µM).

Turning to `COc1ccccc1-c1nnc(Nc2nc3c(F)cccc3s2)o1`, the IC90 is 3.16 µg/mL (≈ 9.23 µM).

`Fc1cccc2sc(Nc3nc(-c4ccccn4)cs3)nc12`: the IC90 was under 0.2 µg/mL.

On to `COc1ccc(OC)c(-c2csc(NC(=O)c3ccc([N+](=O)[O-])o3)n2)c1`, for which the IC90 was 27.1 µg/mL (≈ 72.2 µM).

Take `Cc1ccc(Nc2nc(N3CCN(c4ccc(F)cc4)CC3)nc3nccnc23)cc1C`: the IC90 was 22.8 µg/mL (≈ 53 µM).

For `Cc1ccc(C)c(-c2nnc(NC(=O)c3ccccc3C)o2)c1`, the IC90 was 2.48 µg/mL (≈ 8.07 µM).

Turning to `N#Cc1c(NC(=O)c2cc(Cl)ccc2Cl)sc2c1CCN(Cc1ccccc1)C2`, the IC90 is 12.3 µg/mL (≈ 27.8 µM).

Regarding `CS(=O)(=O)c1ccc(CC(=O)Nc2nnc(-c3ccc4c(c3)CCCC4)o2)cc1`, the concentration for an effect of 90% (IC90) was 13.9 µg/mL (≈ 33.7 µM).

For the molecule `O=C(Nc1ncc(Cc2cccc(C(F)(F)F)c2)s1)c1cccs1`, the IC90 is 2.92 µg/mL (≈ 7.93 µM).

On to `CC(C)(C)C1CCc2c(sc3nnn(CC(=O)NCc4ccco4)c(=O)c23)C1` (stereo not given), for which the IC90 is 22.3 µg/mL (≈ 55.7 µM).
